Numbered stars: 1 amine (or outer) side, 2 acyl side, 3 side chain; on linkers, the order of the positions; unused ones are H or OH. Bridge positions count the residues as written; N and C are the ends. Square brackets hold non-standard residues; d marks the D form. Peptide text beside a SMILES is read from it. I, II: the chains in the order shown. Phe(3,4-Cl2) = N[C@@H](Cc1ccc(Cl)c(Cl)c1)C(=O)O; Phe(4-COOH) = N[C@@H](Cc1ccc(C(=O)O)cc1)C(=O)O; Phe(4-tBu) = CC(C)(C)c1ccc(C[C@H](N)C(=O)O)cc1; Phe(2,4-Cl2) = N[C@@H](Cc1ccc(Cl)cc1Cl)C(=O)O; Bip = N[C@@H](Cc1ccc(-c2ccccc2)cc1)C(=O)O; 1Nal = N[C@@H](Cc1cccc2ccccc12)C(=O)O; Diglycolyl = O=C(COCC(=O)[*:2])[*:1]; NMeR = CN[C@@H](CCCNC(=N)N)C(=O)O; Tic = O=C(O)[C@@H]1Cc2ccccc2CN1; Pen = CC(C)(S)[C@H](N)C(=O)O

We go through 9 compounds from patent US9809623B2, “α4β7 peptide monomer and dimer antagonists” (Protagonist Therapeutics, Inc., priority 2014, dated 2017).

α4β7, sequence (P13612 34-1032): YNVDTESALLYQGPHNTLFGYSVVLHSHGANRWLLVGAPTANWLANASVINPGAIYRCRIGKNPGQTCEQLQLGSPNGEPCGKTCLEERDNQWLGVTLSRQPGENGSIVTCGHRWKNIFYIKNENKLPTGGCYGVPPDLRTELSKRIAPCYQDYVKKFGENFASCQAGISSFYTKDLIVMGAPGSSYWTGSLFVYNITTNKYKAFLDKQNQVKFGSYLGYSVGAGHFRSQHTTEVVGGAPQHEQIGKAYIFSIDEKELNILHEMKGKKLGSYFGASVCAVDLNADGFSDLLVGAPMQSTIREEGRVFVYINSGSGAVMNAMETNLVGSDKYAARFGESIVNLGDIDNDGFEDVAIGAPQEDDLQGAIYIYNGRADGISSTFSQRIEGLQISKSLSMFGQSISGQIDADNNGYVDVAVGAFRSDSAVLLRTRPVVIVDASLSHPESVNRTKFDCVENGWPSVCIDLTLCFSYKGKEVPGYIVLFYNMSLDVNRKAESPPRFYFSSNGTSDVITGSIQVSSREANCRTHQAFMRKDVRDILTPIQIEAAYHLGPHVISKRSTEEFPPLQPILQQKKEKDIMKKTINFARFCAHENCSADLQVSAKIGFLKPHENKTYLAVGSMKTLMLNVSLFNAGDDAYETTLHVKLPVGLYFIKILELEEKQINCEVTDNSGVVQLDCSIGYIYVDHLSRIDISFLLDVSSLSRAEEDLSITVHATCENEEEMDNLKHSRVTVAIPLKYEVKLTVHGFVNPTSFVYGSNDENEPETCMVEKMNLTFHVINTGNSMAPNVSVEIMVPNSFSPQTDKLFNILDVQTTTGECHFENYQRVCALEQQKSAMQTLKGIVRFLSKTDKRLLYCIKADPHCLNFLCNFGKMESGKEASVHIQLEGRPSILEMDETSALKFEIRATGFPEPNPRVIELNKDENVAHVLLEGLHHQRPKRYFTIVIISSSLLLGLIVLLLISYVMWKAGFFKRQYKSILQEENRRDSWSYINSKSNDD
α4β7, sequence (P26010 20-798): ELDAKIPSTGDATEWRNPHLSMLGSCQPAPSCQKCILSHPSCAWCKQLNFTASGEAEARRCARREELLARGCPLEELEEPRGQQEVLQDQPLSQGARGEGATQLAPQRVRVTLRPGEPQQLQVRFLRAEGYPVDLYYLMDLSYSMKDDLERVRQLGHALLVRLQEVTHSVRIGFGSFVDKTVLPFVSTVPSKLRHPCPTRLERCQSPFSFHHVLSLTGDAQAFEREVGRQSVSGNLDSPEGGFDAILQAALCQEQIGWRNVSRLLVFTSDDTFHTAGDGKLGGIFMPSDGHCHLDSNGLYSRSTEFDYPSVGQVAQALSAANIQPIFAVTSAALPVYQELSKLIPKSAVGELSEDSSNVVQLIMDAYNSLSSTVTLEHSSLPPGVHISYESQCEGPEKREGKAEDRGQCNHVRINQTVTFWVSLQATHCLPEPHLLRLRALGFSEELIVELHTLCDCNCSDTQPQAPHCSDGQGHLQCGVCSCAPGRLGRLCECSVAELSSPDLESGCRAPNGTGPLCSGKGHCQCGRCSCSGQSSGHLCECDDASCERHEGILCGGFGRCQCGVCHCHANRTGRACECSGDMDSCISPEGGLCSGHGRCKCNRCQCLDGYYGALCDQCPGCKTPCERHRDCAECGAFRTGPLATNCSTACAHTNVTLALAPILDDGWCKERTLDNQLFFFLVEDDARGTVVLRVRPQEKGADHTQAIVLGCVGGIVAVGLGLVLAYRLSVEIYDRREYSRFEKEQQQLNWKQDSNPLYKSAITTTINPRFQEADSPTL

This assay concerns the target α4β7 (Homo sapiens, UniProt P13612+P26010). Put plainly: α4β7-MAdCAM Cell Adhesion Assay (RPMI 8866 human cells). The assay is classed as cell-based. Details: host or cells: RPMI 8866 human B lymphoblastoid cells. To be noted: Table 3-B, Potency (α4β7); range classes; read-out: α4β7 cell (Hu) IC50. The gist of the method: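 Washed RPMI 8866 cells (200,000/well) in DMEM with 0.1% BSA, 10 mM HEPES pH 7, 1 mM MnCl2 adhered to rh MAdCAM-1/Fc-coated wells with serially diluted peptides, 30-45 min at 37 °C. After three washes, bound cells quantified by MTT, A570, cell-free background subtracted for dose response.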
For `CC(=O)N[C@@H]1C(=O)N(C)[C@@H](CCCNC(=N)N)C(=O)N[C@@H](CO)C(=O)N[C@@H](CC(=O)O)C(=O)N[C@@H]([C@@H](C)O)C(=O)N[C@@H](CC(C)C)C(=O)N[C@H](C(=O)N[C@@H](Cc2ccc(Cl)cc2Cl)C(=O)N[C@H](CCC(=O)O)C(=O)N[C@H](CCCCNC(=O)COCC(=O)NCCCC[C@@H](NC(=O)[C@@H](CCC(=O)O)NC(=O)[C@H](Cc2ccc(Cl)cc2Cl)NC(=O)[C@H]2NC(=O)[C@H](CC(C)C)NC(=O)[C@H]([C@@H](C)O)NC(=O)[C@H](CC(=O)O)NC(=O)[C@H](CO)NC(=O)[C@H](CCCNC(=N)N)N(C)C(=O)[C@@H](NC(C)=O)C(C)(C)SSC2(C)C)C(N)=O)C(N)=O)C(C)(C)SSC1(C)C` [compound 101] (I: Ac-[Pen][NMeR]SDTL[Pen][Phe(2,4-Cl2)][dE][dK]-NH2 / II: Ac-[Pen][NMeR]SDTL[Pen][Phe(2,4-Cl2)][dE][dK]-NH2; disulfide I:1-I:7, II:1-II:7; linker I:10-II:10 via Diglycolyl), the IC50 lay in the range of 50 to 100 nM. Consider `CC(=O)N[C@@H]1C(=O)N(C)[C@@H](CCCNC(=N)N)C(=O)N[C@@H](CO)C(=O)N[C@@H](CC(=O)O)C(=O)N[C@@H]([C@@H](C)O)C(=O)N[C@@H](CC(C)C)C(=O)N[C@H](C(=O)N[C@@H](Cc2ccc(Cl)c(Cl)c2)C(=O)N[C@H](CCC(=O)O)C(=O)N[C@H](CCCCNC(=O)COCC(=O)NCCCC[C@@H](NC(=O)[C@@H](CCC(=O)O)NC(=O)[C@H](Cc2ccc(Cl)c(Cl)c2)NC(=O)[C@H]2NC(=O)[C@H](CC(C)C)NC(=O)[C@H]([C@@H](C)O)NC(=O)[C@H](CC(=O)O)NC(=O)[C@H](CO)NC(=O)[C@H](CCCNC(=N)N)N(C)C(=O)[C@@H](NC(C)=O)C(C)(C)SSC2(C)C)C(N)=O)C(N)=O)C(C)(C)SSC1(C)C` [compound 102] (I: Ac-[Pen][NMeR]SDTL[Pen][Phe(3,4-Cl2)][dE][dK]-NH2 / II: Ac-[Pen][NMeR]SDTL[Pen][Phe(3,4-Cl2)][dE][dK]-NH2; disulfide I:1-I:7, II:1-II:7; linker I:10-II:10 via Diglycolyl), for which the IC50 fell in the range of 100 to 500 nM.

As for `COc1ccc(C[C@H](NC(=O)[C@H]2NC(=O)[C@H](CC(C)C)NC(=O)[C@H]([C@@H](C)O)NC(=O)[C@H](CC(=O)O)NC(=O)[C@H](CO)NC(=O)[C@H](CCCNC(=N)N)N(C)C(=O)[C@@H](NC(C)=O)C(C)(C)SSC2(C)C)C(=O)N[C@H](CCC(=O)O)C(=O)N[C@H](CCCCNC(=O)COCC(=O)NCCCC[C@@H](NC(=O)[C@@H](CCC(=O)O)NC(=O)[C@H](Cc2ccc(OC)cc2)NC(=O)[C@H]2NC(=O)[C@H](CC(C)C)NC(=O)[C@H]([C@@H](C)O)NC(=O)[C@H](CC(=O)O)NC(=O)[C@H](CO)NC(=O)[C@H](CCCNC(=N)N)N(C)C(=O)[C@@H](NC(C)=O)C(C)(C)SSC2(C)C)C(N)=O)C(N)=O)cc1` [compound 103] (I: Ac-[Pen][NMeR]SDTL[Pen]Y(Me)[dE][dK]-NH2 / II: Ac-[Pen][NMeR]SDTL[Pen]Y(Me)[dE][dK]-NH2; disulfide I:1-I:7, II:1-II:7; linker I:10-II:10 via Diglycolyl), the IC50 was 25 to 50 nM. For the compound `CC(=O)N[C@@H]1C(=O)N(C)[C@@H](CCCNC(=N)N)C(=O)N[C@@H](CO)C(=O)N[C@@H](CC(=O)O)C(=O)N[C@@H]([C@@H](C)O)C(=O)N[C@@H](CC(C)C)C(=O)N[C@H](C(=O)N[C@@H](Cc2c[nH]c3ccccc23)C(=O)N[C@@H](Cc2ccc(C(=O)O)cc2)C(=O)N[C@H](CCCCNC(=O)COCC(=O)NCCCC[C@@H](NC(=O)[C@H](Cc2ccc(C(=O)O)cc2)NC(=O)[C@H](Cc2c[nH]c3ccccc23)NC(=O)[C@H]2NC(=O)[C@H](CC(C)C)NC(=O)[C@H]([C@@H](C)O)NC(=O)[C@H](CC(=O)O)NC(=O)[C@H](CO)NC(=O)[C@H](CCCNC(=N)N)N(C)C(=O)[C@@H](NC(C)=O)C(C)(C)SSC2(C)C)C(N)=O)C(N)=O)C(C)(C)SSC1(C)C` [compound 105] (I: Ac-[Pen][NMeR]SDTL[Pen]W[Phe(4-COOH)][dK]-NH2 / II: Ac-[Pen][NMeR]SDTL[Pen]W[Phe(4-COOH)][dK]-NH2; disulfide I:1-I:7, II:1-II:7; linker I:10-II:10 via Diglycolyl), the IC50 is 50 to 100 nM.

With `CC(=O)N[C@@H]1C(=O)N(C)[C@@H](CCCNC(=N)N)C(=O)N[C@@H](CO)C(=O)N[C@@H](CC(=O)O)C(=O)N[C@@H]([C@@H](C)O)C(=O)N[C@@H](CC(C)C)C(=O)N[C@H](C(=O)N[C@@H](Cc2ccc(C(C)(C)C)cc2)C(=O)N[C@H](CCC(=O)O)C(=O)N[C@H](CCCCNC(=O)COCC(=O)NCCCC[C@@H](NC(=O)[C@@H](CCC(=O)O)NC(=O)[C@H](Cc2ccc(C(C)(C)C)cc2)NC(=O)[C@H]2NC(=O)[C@H](CC(C)C)NC(=O)[C@H]([C@@H](C)O)NC(=O)[C@H](CC(=O)O)NC(=O)[C@H](CO)NC(=O)[C@H](CCCNC(=N)N)N(C)C(=O)[C@@H](NC(C)=O)C(C)(C)SSC2(C)C)C(N)=O)C(N)=O)C(C)(C)SSC1(C)C` [compound 106] (I: Ac-[Pen][NMeR]SDTL[Pen][Phe(4-tBu)][dE][dK]-NH2 / II: Ac-[Pen][NMeR]SDTL[Pen][Phe(4-tBu)][dE][dK]-NH2; disulfide I:1-I:7, II:1-II:7; linker I:10-II:10 via Diglycolyl), the IC50 is < 10 nM. For `CC(=O)N[C@@H]1C(=O)N(C)[C@@H](CCCNC(=N)N)C(=O)N[C@@H](CO)C(=O)N[C@@H](CC(=O)O)C(=O)N[C@@H]([C@@H](C)O)C(=O)N[C@@H](CC(C)C)C(=O)N[C@H](C(=O)N[C@@H](Cc2ccc(-c3ccccc3)cc2)C(=O)N[C@H](CCC(=O)O)C(=O)N[C@H](CCCCNC(=O)COCC(=O)NCCCC[C@@H](NC(=O)[C@@H](CCC(=O)O)NC(=O)[C@H](Cc2ccc(-c3ccccc3)cc2)NC(=O)[C@H]2NC(=O)[C@H](CC(C)C)NC(=O)[C@H]([C@@H](C)O)NC(=O)[C@H](CC(=O)O)NC(=O)[C@H](CO)NC(=O)[C@H](CCCNC(=N)N)N(C)C(=O)[C@@H](NC(C)=O)C(C)(C)SSC2(C)C)C(N)=O)C(N)=O)C(C)(C)SSC1(C)C` [compound 108] (I: Ac-[Pen][NMeR]SDTL[Pen][Bip][dE][dK]-NH2 / II: Ac-[Pen][NMeR]SDTL[Pen][Bip][dE][dK]-NH2; disulfide I:1-I:7, II:1-II:7; linker I:10-II:10 via Diglycolyl) the value was 10 to 25 nM; for `CC(=O)N[C@@H]1C(=O)N(C)[C@@H](CCCNC(=N)N)C(=O)N[C@@H](CO)C(=O)N[C@@H](CC(=O)O)C(=O)N[C@@H]([C@@H](C)O)C(=O)N[C@@H](CC(C)C)C(=O)N[C@H](C(=O)N[C@@H](Cc2c[nH]c3ccccc23)C(=O)N2Cc3ccccc3C[C@H]2C(=O)N[C@H](CCCCNC(=O)COCC(=O)NCCCC[C@@H](NC(=O)[C@@H]2Cc3ccccc3CN2C(=O)[C@H](Cc2c[nH]c3ccccc23)NC(=O)[C@H]2NC(=O)[C@H](CC(C)C)NC(=O)[C@H]([C@@H](C)O)NC(=O)[C@H](CC(=O)O)NC(=O)[C@H](CO)NC(=O)[C@H](CCCNC(=N)N)N(C)C(=O)[C@@H](NC(C)=O)C(C)(C)SSC2(C)C)C(N)=O)C(N)=O)C(C)(C)SSC1(C)C` [compound 109] (I: Ac-[Pen][NMeR]SDTL[Pen]W[Tic][dK]-NH2 / II: Ac-[Pen][NMeR]SDTL[Pen]W[Tic][dK]-NH2; disulfide I:1-I:7, II:1-II:7; linker I:10-II:10 via Diglycolyl), 100 to 500 nM. Regarding `CC(=O)N[C@@H]1C(=O)N(C)[C@@H](CCCNC(=N)N)C(=O)N[C@@H](CO)C(=O)N[C@@H](CC(=O)O)C(=O)N[C@@H]([C@@H](C)O)C(=O)N[C@@H](CC(C)C)C(=O)N[C@H](C(=O)N[C@@H](Cc2c[nH]c3ccccc23)C(=O)N[C@H](Cc2c[nH]c3ccccc23)C(=O)N[C@H](CCCCNC(=O)COCC(=O)NCCCC[C@@H](NC(=O)[C@@H](Cc2c[nH]c3ccccc23)NC(=O)[C@H](Cc2c[nH]c3ccccc23)NC(=O)[C@H]2NC(=O)[C@H](CC(C)C)NC(=O)[C@H]([C@@H](C)O)NC(=O)[C@H](CC(=O)O)NC(=O)[C@H](CO)NC(=O)[C@H](CCCNC(=N)N)N(C)C(=O)[C@@H](NC(C)=O)C(C)(C)SSC2(C)C)C(N)=O)C(N)=O)C(C)(C)SSC1(C)C` [compound 110] (I: Ac-[Pen][NMeR]SDTL[Pen]W[dW][dK]-NH2 / II: Ac-[Pen][NMeR]SDTL[Pen]W[dW][dK]-NH2; disulfide I:1-I:7, II:1-II:7; linker I:10-II:10 via Diglycolyl), the IC50 was 10 to 25 nM. Take `CC(=O)N[C@@H]1C(=O)N(C)[C@@H](CCCNC(=N)N)C(=O)N[C@@H](CO)C(=O)N[C@@H](CC(=O)O)C(=O)N[C@@H]([C@@H](C)O)C(=O)N[C@@H](CC(C)C)C(=O)N[C@H](C(=O)N[C@@H](Cc2cccc3ccccc23)C(=O)N[C@H](Cc2ccccc2)C(=O)N[C@H](CCCCNC(=O)COCC(=O)NCCCC[C@@H](NC(=O)[C@@H](Cc2ccccc2)NC(=O)[C@H](Cc2cccc3ccccc23)NC(=O)[C@H]2NC(=O)[C@H](CC(C)C)NC(=O)[C@H]([C@@H](C)O)NC(=O)[C@H](CC(=O)O)NC(=O)[C@H](CO)NC(=O)[C@H](CCCNC(=N)N)N(C)C(=O)[C@@H](NC(C)=O)C(C)(C)SSC2(C)C)C(N)=O)C(N)=O)C(C)(C)SSC1(C)C` [compound 111] (I: Ac-[Pen][NMeR]SDTL[Pen][1Nal][dF][dK]-NH2 / II: Ac-[Pen][NMeR]SDTL[Pen][1Nal][dF][dK]-NH2; disulfide I:1-I:7, II:1-II:7; linker I:10-II:10 via Diglycolyl): the IC50 fell in the range of 100 to 500 nM.
